Test results: the NIST ThermoML archive (doi:10.1016/j.fluid.2008.03.004)

Assay: xn = mol fraction of the nth substance listed
Settings: 101 kPa, Liquid; for speed of sound: Sing-around technique in a fixed-path interferometer

CCOC(C)(C)C [2-ethoxy-2-methylpropane] + Cc1ccccc1C
Settings	mass density, 315.65 K [kg/m3]	mass density, 318.15 K [kg/m3]	mass density, 320.65 K [kg/m3]	mass density, 323.15 K [kg/m3]	speed of sound, 315.65 K [m/s]	speed of sound, 318.15 K [m/s]	speed of sound, 320.65 K [m/s]	speed of sound, 323.15 K [m/s]
x1 = 0.055	852.189	850.034	847.874	845.711	–	1246.8	1236.7	1226.7
x1 = 0.098	846.323	844.148	841.964	839.779	–	1234.5	1224.5	1214.5
x1 = 0.201	831.454	829.229	826.995	824.757	–	1200.6	1190.5	1180.4
x1 = 0.307	816.076	813.795	811.507	809.216	–	1164.1	1153.8	1143.6
x1 = 0.4	802.508	800.179	797.84	795.504	–	1135.1	1124.8	1114.5
x1 = 0.502	787.684	785.298	782.908	780.509	–	1100.9	1090.4	1080
x1 = 0.601	773.969	771.536	769.096	766.647	1080.5	1070	1059.4	1049
x1 = 0.661	765.278	762.809	760.332	757.845	1061	1050.4	1039.8	1029.2
x1 = 0.803	745.112	742.564	740.007	737.438	1017	1006.2	995.53	984.84
x1 = 0.895	731.932	729.329	726.717	724.092	989.44	978.59	967.79	957.05
x1 = 0.947	724.606	721.974	719.329	716.673	974.07	963.16	952.29	941.53
x1 = 1	716.527	713.96	711.25	708.642	953.54	942.67	931.73	920.73
